Results reported in patent US20120316192A1, “SUBSTITUTED INDOLO [2,3-A] QUINOLIZINES” (priority 2011, published 2012).

Tested on: HeLa cells
Assay: FACS analysis of the cell cycle (propidium iodide DNA content)
Assay type: cell-based, human
Conditions: 1 μM nocodazole, 24 h after treatment
Experimental: HeLa human cervical carcinoma cell line, the human breast cancer cell line MCF7, and the human colorectal carcinoma cell line SW480 were maintained in Dulbecco's Modified Eagle's medium (DMEM, PAA, Pasching Austria). The colorectal cell line HT29 was cultured in McCoy's 5A medium (PAA, Pasching, Austria). DMEM medium was supplemented with 10% fetal calf serum, sodium pyruvate, non-essential amino acids, penicillin and streptomycin, McCoy's 5A medium was supplemented with 10% fetal calf serum, penicillin and streptomycin. All cell lines were cultured at 37° C. in a 5% CO2 humidified atmosphere. Further, fluorescent activated cell sorting (FACS) was used successfully to analyze the cell cycle and mitotic arrest under the influence of indoloquinolizines. HeLa cells were fixed and stained for FACS analysis 24 h after compound treatment. Cells were trypsinized and combined with any floating cells, pelleted, and resuspended in 1 ml PBS. Ice cold ethanol (70%) was added, and samples were incubated at −20° C. until analysis. After fixation the cells were pelleted, resuspended in 500 μl staining solution (50 μg/ml propidium iodide, 0.1 mg/ml RNase A, 0.05% Triton X-100) and incubated for 40 min at 37° C. 3 ml PBS were added; the cells were pelleted again and resuspended in 500 μl PBS. The DNA content was measured with a Becton Dickinson LSRII and analyzed with FlowJo 7.5 software. The cell cycle of compound treated HeLa cells was analyzed by fluorescence activated cell sorting (FIG. 1). […] A similar distribution is given in (−)-1-01 treated cells (FIGS. 1c and 1d); here 9% are in G1 and 38% in G2/M phase (25 μM) respectively; 8% in G1 and 40% in G2/M phase (50 μM). This means that the mitotic index is increased by more than two fold (from 0.16 to 0.38 respectively 0.40), indicating a mitotic arrest after compound treatment.

SMILES | cells in G1 phase [%] | cells in G2/M phase [%]
COC(=O)Nc1nc2ccc(C(=O)c3cccs3)cc2[nH]1 [nocodazole, reference compound] | 4 | 40

Tested on: all cell lines but Saos2
Assay: Apo-ONE homogeneous caspase-3/7 assay (apoptosis), summary statement
Assay type: cell-based
Conditions: all cell lines but Saos2, 42 h
Experimental: HeLa human cervical carcinoma cell line, the human breast cancer cell line MCF7, the African green monkey kidney cell line BS-C-1 and the human colorectal carcinoma cell lines HCT116 and SW480 were maintained in Dulbecco's Modified Eagle's medium (DMEM, PAA, Pasching Austria). The colorectal cell line HT29 was cultured in McCoy's 5A medium (PAA, Pasching, Austria). The prostate carcinoma cells PC3 and the osteosarcoma cells Saos2 were cultured in RPMI medium (PAA, Pasching Austria). All media were supplemented with 10% fetal calf serum, L-glutamine, penicillin and streptomycin. All cell lines were maintained at 37° C. in a 5% CO2 humidified atmosphere.
Therefore we measured the caspase-3/7 activity in different cell lines with the Apo-ONE® homogeneous caspase-3/7 assay.
Caspase-3/7 activities were determined using the Apo-ONE® homogeneous caspase-3/7 assay (Promega, Mannheim Germany) according to the manufacturer's protocol. Briefly, cells were plated in quadruplicates in 384-well cell culture plate. After 24 hours cells were exposed for 42 hours to the compounds at different concentrations. Control cells were treated with 0.5% DMSO or staurosporine (STS). Subsequently cells were lysed with a lysis buffer containing the caspase-3/7 substrate Z-DEVD-R110 and were incubated at room temperature until further analysis. The fluorescence was detected with the TECAN Inifinite® M200 plate reader at excitation/emission wavelength 485/520 nm. The blank value was subtracted from each value and the relative caspase-3/7 activity was calculated compared to the DMSO treated cells.
These findings correlate with our results from the cell viability assays for these indoloquinolizine.

SMILES | impact on the apoptosis
COC(=O)C1=CC(C(=O)c2ccccc2O)=CN2CCc3c([nH]c4ccccc34)C12C(=O)OC (single isomer, unassigned; (+)) [(+)-1-01, Dimethyl-3-(2-hydroxybenzoyl)-6,7,12,12b-tetrahydroindolo[2,3a]quinolizine-1,12b-dicarboxylate] | did not have any impact on the apoptosis
COC(=O)C1=CC(C(=O)c2ccccc2O)=CN2CCc3c([nH]c4ccc(OC)cc34)C12C(=O)OC (single isomer, unassigned; (+)) [(+)-1-04, Dimethyl-3-(2-hydroxybenzoyl)-9-methoxy-6,7,12,12b-tetrahydro-indolo[2,3-a]quinolizine-1,12b-dicarboxylate] | did not have any impact on the apoptosis

Tested on: not given
Assay: not given
Conditions: not given

SMILES | melting point
COC(=O)C1=CC(C(=O)c2cc(Br)ccc2O)=CN2CCc3c([nH]c4ccccc34)C12C(=O)OC (centres unmarked) | 220 °C (dec.)
COC(=O)C1=CC(C(=O)c2ccccc2O)=CN2CCc3c([nH]c4ccc(O)cc34)C12C(=O)OC (centres unmarked) | 180 °C (dec.)
COC(=O)C1=CC(C(=O)c2c(O)cccc2OC)=CN2CCc3c([nH]c4ccccc34)C12C(=O)OC (centres unmarked) | 237 °C (dec.)
COC(=O)C1=CC(C(=O)c2ccccc2OC)=CN2CCc3c([nH]c4ccccc34)C12C(=O)OC (centres unmarked) | 261 °C (dec.)
CCOC(=O)C1=CC(C(=O)c2ccccc2O)=CN2CCc3c([nH]c4ccccc34)C12C(=O)OCC (centres unmarked) | 209 °C
COC(=O)C1=CC(C(=O)c2cc(Br)cc(Br)c2O)=CN2CCc3c([nH]c4ccccc34)C12C(=O)OC (centres unmarked) | 131 °C
COC(=O)C1=CC(C(=O)c2cc(C)ccc2O)=CN2CCc3c([nH]c4ccccc34)C12C(=O)OC (centres unmarked) | 197 °C
COC(=O)C1=CC(C(=O)c2cc(Cl)ccc2O)=CN2CCc3c([nH]c4ccccc34)C12C(=O)OC (centres unmarked) | 232 °C (dec.)
COC(=O)C1=CC(C(=O)c2cc(Cl)cc(Cl)c2O)=CN2CCc3c([nH]c4ccccc34)C12C(=O)OC (centres unmarked) | 238.2 °C (dec.)
COC(=O)C1=CC(C(=O)c2ccccc2O)=CN2CCc3c([nH]c4ccc(Br)cc34)C12C(=O)OC (centres unmarked) | 182 °C
COC(=O)C1=CC(C(=O)c2ccccc2O)=CN2CCc3c([nH]c4ccccc34)C12C(=O)OC (centres unmarked) | 258 °C (dec.)
COC(=O)C1=CC(C(=O)c2ccccc2O)=CN2CCc3c([nH]c4ccc(OC)cc34)C12C(=O)OC (centres unmarked) | 163 °C (dec.)
COC(=O)C1=CC(C(=O)c2ccccc2O)=CN2CCc3c([nH]c4ccc(C)cc34)C12C(=O)OC (centres unmarked) | 175 °C

The remaining lines, values ahead:

melting point | SMILES
230 °C | CCOC(=O)C1=CC(C(=O)c2cc(Cl)ccc2O)=CN2CCc3c([nH]c4ccc(OC)cc34)C12C(=O)OCC (centres unmarked) [Compound 1-20, Diethyl-3-(5-chloro-2-hydroxybenzoyl)-9-methoxy-6,7,12,12b-tetrahydroindolo[2,3-a]quinolizine-1,12b-dicarboxylate]
244 °C (dec.) | COC(=O)C1=CC(C(=O)c2ccccc2O)=CN2[C@H](C(=O)OC)Cc3c([nH]c4ccccc34)C12C(=O)OC (stereo partly drawn) [Compound 1-28, (6S)-trimethyl 3-(2-hydroxybenzoyl)-6,7,12,12b-tetrahydroindolo[2,3-a]quinolizine-1,6,12b-tricarboxylate]
208 °C | CCOC(=O)C1=CC(C(=O)c2cc(C)ccc2O)=CN2CCc3c([nH]c4ccccc34)C12C(=O)OCC (centres unmarked) [Compound 1-03, Diethyl-3-(2-hydroxy-5-methylbenzoyl)-6,7,12,12b-tetrahydroindolo-[2,3-a]quinolizine-1,12b-dicarboxylate]
212 °C | CCOC(=O)C1=CC(C(=O)c2ccccc2O)=CN2CCc3c([nH]c4ccc(OC)cc34)C12C(=O)OCC (centres unmarked) [Compound 1-13, Diethyl-3-(2-hydroxybenzoyl)-9-methoxy-6,7,12,12b-tetrahydro-indolo[2,3-a]quinolizine-1,12b-dicarboxylate]
228 °C | CCOC(=O)C1=CC(C(=O)c2cc(C)ccc2O)=CN2CCc3c([nH]c4ccc(OC)cc34)C12C(=O)OCC (centres unmarked) [Compound 1-16, Diethyl-3-(2-hydroxy-5-methylbenzoyl)-9-methoxy-6,7,12,12b-tetrahydroindolo[2,3-a]quinolizine-1,12b-dicarboxylate]
225 °C | CCOC(=O)C1=CC(C(=O)c2cc(Br)ccc2O)=CN2CCc3c([nH]c4ccc(OC)cc34)C12C(=O)OCC (centres unmarked) [Compound 1-22, Diethyl-3-(5-bromo-2-hydroxybenzoyl)-9-methoxy-6,7,12,12b-tetrahydroindolo[2,3-a]quinolizine-1,12b-dicarboxylate]
215 °C | CCOC(=O)C1=CC(C(=O)c2cc(Br)ccc2O)=CN2CCc3c([nH]c4ccccc34)C12C(=O)OCC (centres unmarked) [Compound 1-14, Diethyl-3-(5-bromo-2-hydroxybenzoyl)-6,7,12,12b-tetrahydro-indolo[2,3-a]quinolizine-1,12b-dicarboxylate]
216 °C | CCOC(=O)C1=CC(C(=O)c2cc(Cl)ccc2O)=CN2CCc3c([nH]c4ccccc34)C12C(=O)OCC (centres unmarked) [Compound 1-19, Diethyl-3-(5-chloro-2-hydroxybenzoyl)-6,7,12,12b-tetrahydro-indolo[2,3-a]quinolizine-1,12b-dicarboxylate]
237 °C (dec.) | CC(C)(C)OC(=O)C1=CC(C(=O)c2ccccc2O)=CN2CCc3c([nH]c4ccccc34)C12C(=O)OC(C)(C)C (centres unmarked) [Compound 1-54, di-tert-butyl 3-(2-hydroxybenzoyl)-6,7,12,12b-tetrahydroindolo[2,3-a]quinolizine-1,12b-dicarboxylate]
197 °C (dec.) | COC(=O)C1=CC(C(=O)c2cc(Br)ccc2O)=CN2CCc3c([nH]c4ccc(OC)cc34)C12C(=O)OC (centres unmarked) [Compound 1-05, Dimethyl-3-(5-bromo-2-hydroxybenzoyl)-9-methoxy-6,7,12,12b-tetrahydro-indolo[2,3-a]quinolizine-1,12b-dicarboxylate]
196 °C | CCOC(=O)C1=CC(C(=O)c2cc(Cl)c(C)cc2O)=CN2CCc3c([nH]c4ccccc34)C12C(=O)OCC (centres unmarked) [Compound 1-18, Diethyl-3-(5-chloro-2-hydroxy-4-methylbenzoyl)-6,7,12,12b-tetrahydroindolo[2,3-a]quinolizine-1,12b-dicarboxylate]
216 °C | COC(=O)C1=CC(C(=O)c2ccc(OCc3ccccc3)c(C)c2O)=CN2CCc3c([nH]c4ccccc34)C12C(=O)OC (centres unmarked) [Compound 1-23, Dimethyl 3-(4-(benzyloxy)-2-hydroxy-3-methylbenzoyl)-6,7,12,12b-tetrahydroindolo[2,3-a]quinolizine-1,12b-dicarboxylate]
